Assay results as given in patent publication US11433036B2, “Oxprenolol compositions for treating cancer” (priority 2013, dated 2022).
“Also recorded” adds a separate entry of the source. Where two headings read alike, the source gives them in different places.

Columns and labels:
Yoshida Hepatoma Model [1] = conditions: for change in body weight: S-oxprenolol 20 mg/kg/day vs racemic mixture 40 mg/kg/day, FIG. 8; for change of body weight: 5, 12.5, 25 or 50 mg/kg/day, FIG. 7
Text: (§1) Ascites hepatoma Yoshida AH-130 cells (10^3 cells) were inoculated into about 200 gram male Wistar rats by i.p. injection. Alternatively animals received saline injection only (sham). The day after inoculation animals were randomized into various groups and then received twice daily treatment with either placebo or various test compositions by oral gavage over a period of up to 17 days. The primary endpoints of the study included assessment of body weight, body composition (with and without tumor), and survival. Body composition was monitored by NMR. Echocardiography was used in instances to monitor condition of the heart. Organ weight was assessed at the end of the study (or after death) as a secondary endpoint. In addition, locomotor activity and food intake were also assessed. FIG. 1 provides a diagram showing the design study. R- and S-oxprenolol were manufactured to order by Peakdale Molecular, Peakdale Science Park, Sheffield Road. Chapel-en-le-Frith, High Peak SK23 0PG, UK
To study the effect of the test compounds on body weight, body weight was monitored over time.
To study the effect of the test compounds as mixtures of enantiomers on body weight, body weight was monitored over time.

Yoshida Hepatoma Model [2] = test: Survival in Yoshida hepatoma model; type: in vivo, male Wistar rats; conditions: for survival: animal inoculated with hepatocellular carcinoma cells, summary statement
Text: as §1
To study the effect of S-oxprenolol and R-oxprenolol on survival, survival was monitored over time.

Yoshida Hepatoma Model [3] = conditions: for change in fat mass: FIG. 14
Text: as §1
To study the effect of the test compounds on fat mass, the fat mass were determined at the end of the study.
To study the effect of the test compounds as mixtures of enantiomers on fat mass, the fat mass were determined at the end of the study.

Yoshida Hepatoma Model [4] = conditions: for change in lean body mass/days alive: FIG. 11B
Text: as §1
To study the effect of the test compounds on lean body mass, lean mass was determined at the end of the study.
To study the effect of the test compounds as mixtures of enantiomers on lean body mass, lean mass was determined at the end of the study.

Yoshida Hepatoma Model [5] = conditions: 5, 12.5, 25 or 50 mg/kg/day; end of study; FIGS. 13A-13D
Text: as §1
To study the effect of the test compounds on skeletal muscle atrophy and heart weight, the skeletal muscle mass and heart weight were determined at the end of the study.

[6] = system: Hela-93 (cervix carcinoma); conditions: Hela-93 cells; BrdU incorporation and XTT assay; FIG. 20
Experimental: (§2) The effect of the test compounds on tumor growth was also evaluated in an in vitro experiment with various tumor cells, namely, Kelly (neuroblastoma), Hela-93 (cervix carcinoma), and B16V (melanoma). Cell growth was assessed by BrdU incorporation (left of FIG. 20) and XTT assay (right of FIG. 20). Doxorubicin was used as a positive control.

Kelly (neuroblastoma) = conditions: Kelly cells; BrdU incorporation and XTT assay; FIG. 20
Experimental: as §2

B16V (melanoma) = conditions: B16V cells; BrdU incorporation and XTT assay; FIG. 20
Experimental: as §2

Yoshida Hepatoma Model [7] = conditions: 5, 12.5, 25 or 50 mg/kg/day vs placebo; end of study; FIGS. 19A and 19B
Text: as §1
To study the effect of the test compounds on tumor growth, tumor growth was assessed at the end of the study.

Yoshida Hepatoma Model [8] = conditions: Day 11; for food intake: FIG. 17; for locomotor activity: FIG. 18
Text: as §1
To study the effect of the test compounds on quality of life, parameters of quality of life such as food intake and locomotor activity were assessed at Day 11.

[9] = S-oxprenolol 20 mg/kg/day vs racemic mixture 40 mg/kg/day (same amount of S-oxprenolol), FIG. 3
[10] = S-oxprenolol 20 mg/kg/day vs racemic mixture 40 mg/kg/day, FIG. 16A
[11] = S-oxprenolol 20 mg/kg/day vs racemic mixture 40 mg/kg/day, FIG. 16B
[12] = S-oxprenolol 20 mg/kg/day vs racemic mixture 40 mg/kg/day, FIG. 11A
[13] = S-oxprenolol 20 mg/kg/day vs racemic mixture 40 mg/kg/day
[14] = 25 mg/kg/day or 50 mg/kg/day, oral gavage twice daily, up to 17 days, FIG. 2
[15] = 5, 12.5, 25 or 50 mg/kg/day, FIG. 15A
[16] = 5, 12.5, 25 or 50 mg/kg/day, FIG. 15B
[17] = 5 mg/kg/day or 25 mg/kg/day vs placebo
[18] = 25 mg/kg/day S-oxprenolol vs same amount of R-oxprenolol
[19] = 5, 12.5, 25 or 50 mg/kg/day, FIG. 10
[20] = S-oxprenolol vs placebo or S-pindolol 3 mg/kg/day, FIG. 4

SMILES | change in body weight (Yoshida Hepatoma Model [1]) | percent survival (Yoshida Hepatoma Model [2]; [9]) | weight of white adipose tissue (WAT) (Yoshida Hepatoma Model [3]; [10]) | weight of brown adipose tissue (BAT) (Yoshida Hepatoma Model [3]; [11]) | change in lean body mass (Yoshida Hepatoma Model [4]; [12]) | change in lean body mass/days alive (Yoshida Hepatoma Model [4]; [13]) | mass of skeletal muscle (gastrocnemius, tibialis anterior, soleus, EDL) (Yoshida Hepatoma Model [5]) | tumor cell proliferation [6] | tumor cell proliferation (Kelly (neuroblastoma)) | tumor cell proliferation (B16V (melanoma)) | change of body weight (Yoshida Hepatoma Model [1]) | percent survival (Yoshida Hepatoma Model [2]; [14]) | survival (Yoshida Hepatoma Model [2]) | tumor growth (tumor volume, total number of cells in a tumor) (Yoshida Hepatoma Model [7]) | change in fat mass (Yoshida Hepatoma Model [3]; 5, 12.5, 25 or 50 mg/kg/day) | weight of white adipose tissue (WAT) (Yoshida Hepatoma Model [3]; [15]) | weight of brown adipose tissue (BAT) (Yoshida Hepatoma Model [3]; [16]) | food intake (Yoshida Hepatoma Model [8]; [17]) | locomotor activity (Yoshida Hepatoma Model [8]; [17]) | food intake (Yoshida Hepatoma Model [8]; [18]) | further results
C=CCOc1ccccc1OCC(O)CNC(C)C (racemic) [racemic mixture of oxprenolol, 1-[2-(allyloxy)phenoxy]-3-(isopropylamino)propan-2-ol, reference compound] | rats receiving S-oxprenolol had less body weight loss than those receiving the racemic mixture | rats receiving S-oxprenolol had longer survival than those receiving the racemic mixture | rats receiving S-oxprenolol had significantly better effect in preserving the white adipose tissue than those receiving the racemic mixture | rats receiving S-oxprenolol had better effect in preserving the brown adipose tissue than those receiving the racemic mixture | rats receiving S-oxprenolol had less change in lean body weight than those receiving the racemic mixture | rats receiving S-oxprenolol had less change in lean body mass than those receiving the racemic mixture | – | – | – | – | – | – | – | – | – | – | – | – | – | – | –
C=CCOc1ccccc1OC[C@H](O)CNC(C)C [R-oxprenolol, (R)-(+)-oxprenolol, reference compound] | – | – | – | – | – | – | does not have this protective effect | neither S-oxprenolol nor R-oxprenolol showed any inhibitor effects on tumor cell proliferation | neither S-oxprenolol nor R-oxprenolol showed any inhibitor effects on tumor cell proliferation | neither S-oxprenolol nor R-oxprenolol showed any inhibitor effects on tumor cell proliferation | rats receiving S-oxprenolol had less body weight loss than those in the placebo group and those administered with R-oxprenolol | did not show statistically significant improvement on survival over those in the placebo group | S-oxprenolol, but not R-oxprenolol, significantly improved survival | did not have any significant effects on tumor growth compared to those in the placebo group | rats receiving S-oxprenolol at 12.5 mg/kg/day or higher had less fat mass loss than those in the placebo group or those receiving R-oxprenolol | S-oxprenolol had better effects in reducing fat wasting than R-oxprenolol | both enantiomers of oxprenolol protect BAT mass | higher food intake than those in the placebo group | higher locomotive activity than those in the placebo group | Rats receiving 25 mg/kg/day S-oxprenolol had higher food intake than those receiving the same amount of R-oxprenolol | percent survival (Yoshida Hepatoma Model [2]; R-oxprenolol 5, 12.5, 25 or 50 mg/kg/day, FIG. 6): no statistically significant survival benefit over placebo was observed; locomotor activity (Yoshida Hepatoma Model [8]; [18]): Rats receiving 25 mg/kg/day S-oxprenolol had higher locomotive activity than those receiving the same amount of R-oxprenolol; change in lean body mass (Yoshida Hepatoma Model [4]; [19]): rats receiving S-oxprenolol at doses of 12.5 mg/kg/day or higher had less change in lean body mass than those receiving R-oxprenolol
C=CCOc1ccccc1OC[C@@H](O)CNC(C)C [S-oxprenolol, (S)-(−)-oxprenolol] | less body weight loss than those receiving the racemic mixture | longer survival than those receiving the racemic mixture; also recorded: had an improved effect on survival than the racemic mixture | significantly better effect in preserving the white adipose tissue than those receiving the racemic mixture | better effect in preserving the brown adipose tissue than those receiving the racemic mixture | less change in lean body weight than those receiving the racemic mixture | less change in lean body mass than those receiving the racemic mixture | reduces wasting of individual hind limb muscles independent of their composition of slow and fast twitch muscle fibers | neither S-oxprenolol nor R-oxprenolol showed any inhibitor effects on tumor cell proliferation | neither S-oxprenolol nor R-oxprenolol showed any inhibitor effects on tumor cell proliferation | neither S-oxprenolol nor R-oxprenolol showed any inhibitor effects on tumor cell proliferation | less body weight loss than those in the placebo group and those administered with R-oxprenolol | longer survival than those in the placeo group or those receiving R-oxprenolol | significantly improved survival in animals having cancer | did not have any significant effects on tumor growth compared to those in the placebo group | rats receiving S-oxprenolol at 12.5 mg/kg/day or higher had less fat mass loss than those in the placebo group or those receiving R-oxprenolol | better effects in reducing fat wasting than R-oxprenolol | both enantiomers of oxprenolol protect BAT mass | higher food intake than those in the placebo group | higher locomotive activity than those in the placebo group | higher food intake than those receiving the same amount of R-oxprenolol | change in body weight, comparison of dosages (Yoshida Hepatoma Model [1]; S-oxprenolol 12.5, 25, 50, 70 or 100 mg/kg/day, FIG. 9): rats receiving 50 mg/kg/day or 100 mg/kg/day of the S-oxprenolol had the least body weight loss; percent survival, comparison of dosages (Yoshida Hepatoma Model [2]; S-oxprenolol 5, 12.5, 25, 50, 70 or 100 mg/kg/day, FIGS. 4 and 5): 50 mg/kg/day S-oxprenolol had the best effect on survival among all dosages tested; percent survival (Yoshida Hepatoma Model [2]; [20]): significantly superior to either placebo or S-pindolol at its preferred dose; locomotor activity (Yoshida Hepatoma Model [8]; [18]): higher locomotive activity than those receiving the same amount of R-oxprenolol; change in lean body mass (Yoshida Hepatoma Model [4]; [19]): rats receiving S-oxprenolol at doses of 12.5 mg/kg/day or higher had less change in lean body mass than those receiving R-oxprenolol; change in lean body mass, comparison of dosages (Yoshida Hepatoma Model [4]; S-oxprenolol 12.5, 25, 50, 70 or 100 mg/kg/day, FIG. 12A): rats receiving 100 mg/kg/day of S-oxprenolol had the least change in lean body mass compared to rats receiving other doses; change in lean body mass/days alive, comparison of dosages (Yoshida Hepatoma Model [4]; S-oxprenolol 12.5, 25, 50, 70 or 100 mg/kg/day, FIG. 12B): rats receiving 100 mg/kg/day of S-oxprenolol had the least change in lean body mass/days alive compared to rats receiving other doses
CC(C)NC[C@H](O)COc1cccc2[nH]ccc12 [S-pindolol, reference compound] | – | – | – | – | – | – | – | – | – | – | – | – | – | – | – | – | – | – | – | – | percent survival (Yoshida Hepatoma Model [2]; [20]): S-oxprenolol was significantly superior to either placebo or S-pindolol at its preferred dose
